Reference: ChEMBL document CHEMBL1157642, “2-Amino-5-benzoyl-4-phenylthiazoles: Development of potent and selective adenosine A1 receptor antagonists” (Bioorg Med Chem, 2010)

Legend:
[1] = target: T1, Adenosine receptor A2b (Homo sapiens) (UniProt P29275); assay: Antagonist activity at human adenosine A2B receptor; assay type: functional
T1 sequence (whole entry): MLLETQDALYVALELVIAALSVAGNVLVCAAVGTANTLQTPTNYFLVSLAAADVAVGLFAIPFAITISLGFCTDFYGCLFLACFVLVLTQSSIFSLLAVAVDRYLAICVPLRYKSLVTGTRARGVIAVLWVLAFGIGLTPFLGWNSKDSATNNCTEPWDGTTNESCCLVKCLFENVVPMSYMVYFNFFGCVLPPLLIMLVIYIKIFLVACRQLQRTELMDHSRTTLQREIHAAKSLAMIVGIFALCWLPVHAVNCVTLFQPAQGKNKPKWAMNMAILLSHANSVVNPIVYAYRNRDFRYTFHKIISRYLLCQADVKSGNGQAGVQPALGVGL

[2] = target: T2, Adenosine receptor A1 (Homo sapiens, UniProt P30542); assay: Binding affinity to human adenosine A1 receptor
T2 sequence (P30542 whole entry): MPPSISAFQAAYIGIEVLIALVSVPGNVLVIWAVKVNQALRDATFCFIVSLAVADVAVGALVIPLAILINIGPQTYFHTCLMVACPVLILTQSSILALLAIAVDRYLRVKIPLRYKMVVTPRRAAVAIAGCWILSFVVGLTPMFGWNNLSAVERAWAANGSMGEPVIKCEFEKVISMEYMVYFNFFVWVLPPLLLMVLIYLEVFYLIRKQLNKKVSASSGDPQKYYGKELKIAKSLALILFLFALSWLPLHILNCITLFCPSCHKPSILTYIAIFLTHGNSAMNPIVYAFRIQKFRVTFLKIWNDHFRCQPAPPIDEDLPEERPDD

[3] = target: Adenosine receptor A2a (Homo sapiens, UniProt P29274)
Sequence of Adenosine receptor A2a (Homo sapiens, UniProt P29274) (P29274 whole entry): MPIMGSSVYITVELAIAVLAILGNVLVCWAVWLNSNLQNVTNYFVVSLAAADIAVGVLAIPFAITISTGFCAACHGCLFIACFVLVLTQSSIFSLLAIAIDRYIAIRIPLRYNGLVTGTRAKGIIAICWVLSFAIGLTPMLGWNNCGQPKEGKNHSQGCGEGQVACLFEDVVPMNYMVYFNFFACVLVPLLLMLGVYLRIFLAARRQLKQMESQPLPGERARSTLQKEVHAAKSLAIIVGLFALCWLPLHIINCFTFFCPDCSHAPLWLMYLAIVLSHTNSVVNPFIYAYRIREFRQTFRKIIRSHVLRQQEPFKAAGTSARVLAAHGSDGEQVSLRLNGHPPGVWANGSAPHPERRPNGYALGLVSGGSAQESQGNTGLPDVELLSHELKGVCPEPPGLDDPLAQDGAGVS
Description: Binding affinity to human adenosine A2A receptor

[4] = target: T3, Adenosine receptor A1 (Cavia porcellus, UniProt P47745); assay: Binding affinity to guinea pig adenosine A1 receptor
T3 sequence (P47745 whole entry): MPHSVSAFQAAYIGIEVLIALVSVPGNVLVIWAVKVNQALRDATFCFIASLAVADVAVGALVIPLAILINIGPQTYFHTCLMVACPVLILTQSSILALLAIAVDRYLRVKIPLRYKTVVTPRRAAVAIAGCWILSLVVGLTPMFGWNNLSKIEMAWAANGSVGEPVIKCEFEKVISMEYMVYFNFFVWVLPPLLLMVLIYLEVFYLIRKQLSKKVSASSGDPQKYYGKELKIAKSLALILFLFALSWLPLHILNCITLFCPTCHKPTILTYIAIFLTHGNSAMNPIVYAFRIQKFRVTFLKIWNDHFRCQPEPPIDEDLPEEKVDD

[5] = target: T4, Adenosine receptor A3 (Ovis aries, UniProt P35342); assay: Binding affinity to sheep adenosine A3 receptor
T4 sequence (P35342 whole entry): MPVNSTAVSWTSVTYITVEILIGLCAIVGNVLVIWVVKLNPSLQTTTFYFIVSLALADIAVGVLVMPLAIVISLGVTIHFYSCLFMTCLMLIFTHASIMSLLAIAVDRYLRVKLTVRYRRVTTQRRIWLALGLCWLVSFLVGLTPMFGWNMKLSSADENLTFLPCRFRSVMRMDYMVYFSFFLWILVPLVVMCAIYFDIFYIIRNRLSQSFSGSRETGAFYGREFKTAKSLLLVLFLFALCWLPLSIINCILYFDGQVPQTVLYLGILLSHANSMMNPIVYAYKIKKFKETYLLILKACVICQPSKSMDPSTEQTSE

[6] = target: Adenosine receptor A2a (Cavia porcellus, UniProt P46616); assay: Binding affinity to guinea pig adenosine A2A receptor
Sequence of Adenosine receptor A2a (Cavia porcellus, UniProt P46616) (P46616 whole entry): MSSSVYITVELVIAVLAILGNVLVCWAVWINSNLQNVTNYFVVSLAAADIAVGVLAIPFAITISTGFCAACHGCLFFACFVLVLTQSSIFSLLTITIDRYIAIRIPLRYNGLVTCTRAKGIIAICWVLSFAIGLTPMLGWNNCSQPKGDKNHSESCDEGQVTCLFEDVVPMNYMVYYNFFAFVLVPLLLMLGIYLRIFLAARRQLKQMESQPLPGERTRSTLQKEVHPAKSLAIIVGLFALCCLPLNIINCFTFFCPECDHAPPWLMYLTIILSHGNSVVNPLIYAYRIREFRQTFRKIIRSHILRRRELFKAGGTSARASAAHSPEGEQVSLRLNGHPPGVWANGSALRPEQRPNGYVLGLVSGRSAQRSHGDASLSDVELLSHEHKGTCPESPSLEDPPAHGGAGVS

[7] = target: T5, Adenosine receptor A3 (Rattus norvegicus, UniProt P28647)
T5 sequence (P28647 whole entry): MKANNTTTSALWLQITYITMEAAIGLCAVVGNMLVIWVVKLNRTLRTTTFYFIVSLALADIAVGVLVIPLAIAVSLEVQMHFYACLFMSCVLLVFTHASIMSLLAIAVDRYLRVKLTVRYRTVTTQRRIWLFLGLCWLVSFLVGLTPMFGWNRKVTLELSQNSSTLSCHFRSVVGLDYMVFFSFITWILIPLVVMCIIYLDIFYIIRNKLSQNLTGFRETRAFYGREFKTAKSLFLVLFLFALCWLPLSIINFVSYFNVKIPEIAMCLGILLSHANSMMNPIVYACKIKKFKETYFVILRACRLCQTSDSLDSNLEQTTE
Description: Binding affinity to rat adenosine A3 receptor

Molecule `COc1cc(-c2nc(NC(C)=O)sc2-c2ccncc2)cc(OC)c1OC` has a Kb [1] of 3.2 µM, a Ki [2] of over 10 µM and a Ki [3] of over 10 µM.
With `Cn1cnc2c(N[C@H]3C[C@H]4CC[C@@H]3C4)ncnc21` the Ki [4] was 0.375 µM, the Ki [5] was 0.0414 µM and the Ki [6] was 3.75 µM.
For `Cn1c(=O)c2[nH]cnc2n(C)c1=O` [THEOPHYLLINE], the Ki [7] was 85 µM.
